Test results reported in patent publication US11447471B2, “α,β-unsaturated amide compound” (KYOWA KIRIN CO., LTD., priority 2017, dated 2022).

Key:
Format in all cases: cell-based
NCI-H226 cells = assay: Cell growth inhibitory effect on human mesothelioma cell line (cell counting kit 8, 6 days); conditions: NCI-H226, 144 h
From the text: (§1) NCI-H226 cells, a human mesothelioma cell line (ATCC, CRL-5826), NCI-H322 cells, a human lung cancer cell line (the European Collection of Authenticated Cell Cultures, 95111734), OUTOKO cells, a human ovarian cancer cell line (JCRB cell bank, KRB1048) and […] were each subcultured by keeping the cell density under 80% in a RPMI1640 culture medium with 10% fetal bovine serum (FBS). NCI-H226 cells, NCI-H322 cells and SSP-25 cells were each suspended in the RPMI1640 culture medium mentioned above, and plated to a 96-well flat-bottom plate at 500 cells/well in each well, and incubated at 37° C. in an incubator with 5% CO2 for one day. After the incubation, the evaluation of cell growth inhibitory activity was started. OVTOKO cells were suspended in the RPMI1640 culture medium mentioned above, and plated to a 96-well flat-bottom plate at 250 cells/well in each well, and incubated it at 37° C. in an incubator with 5% CO2 for one day. After the incubation, the evaluation of the cell growth inhibitory activity was started. The next day, a test compound was serially diluted to 5 times of its final concentration in the RPM11640 culture medium mentioned above, and the diluted solution was added to each well. In this case, the final concentration of DMSO in each well was adjusted to 0.1%. After the test compound was added, cells were incubated at 37° C. in an incubator with 5% CO2 for 6 days. At the addition of the test compound and 6 days after the addition, the cell counting measurement was performed using a cell counting kit 8 (made by DOJINDO) according to a protocol equivalent to DOJINDO's recommendation. A reagent contained in the kit was added to each plate and color reaction was performed for 2 or 3 hours at 37° C. in an incubator with 5% CO2. After the reaction, an absorbance at wavelength of 450 nm was measured using a microplate reader. A growth inhibition rate was calculated according to the following formula, from which the concentration of a test compound at which cell growth was inhibited by 50% (GI50 value) was determined.

NCI-H322 cells = assay: Cell growth inhibitory effect on human lung cancer cell line (cell counting kit 8, 6 days); conditions: 144 h; human lung cancer cell line NCI-H322, 6 days incubation
From the text: as §1

OVTOKO cells = assay: Cell growth inhibitory effect on human ovarian cancer cell line (cell counting kit 8, 6 days); conditions: 144 h, 6 days incubation
Method in brief: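 Cells in RPMI1640 with 10% FBS plated at 500 cells/well (OVTOKO 250/well) and cultured one day at 37° C, 5% CO2. Serially diluted compound added (final DMSO 0.1%) for 6 days; viable cells measured at addition and day 6 with CCK-8, absorbance 450 nm. GI50 derived from growth inhibition rate.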

HuH28 cells = assay: Cell growth inhibitory effect on human liver cancer cell line (cell counting kit 8, 6 days); conditions: 144 h; human liver cancer cell line HuH28, 6 days incubation
From the text: as §1

C=CC(=O)N[C@@H]1CC[C@H](Oc2ccc(C(F)(F)F)c(F)c2)c2nc(Cl)ccc21 (relative stereo) [Compound 187, cis-N-[2-Chloro-8-{3-fluoro-4-(trifluoromethyl)phenoxy}-5,6,7,8-tetrahydroquinolin-5-yl]acrylamide] gave a GI50 (NCI-H226 cells) of less than 0.1 µM, a GI50 (NCI-H322 cells) of less than 1 µM and a GI50 (OVTOKO cells) of no more than 3 µM. It also gave a GI50 (HuH28 cells) of less than 3 µM.

C=CC(=O)NCc1ccc(Oc2ccc(C(F)(F)F)nc2)c2sc(C)nc12 [Compound 287, N-{(2-Methyl-7-[{6-(trifluoromethyl)pyridin-3-yl}oxy]benzo[d]thiazol-4-yl)methyl}acrylamide] gave a GI50 (NCI-H226 cells) of less than 0.1 µM, a GI50 (NCI-H322 cells) of less than 1 µM and a GI50 (OVTOKO cells) of no more than 3 µM. It also gave a GI50 (HuH28 cells) of less than 3 µM.

Compound C=CC(=O)NCc1ccc(OCc2ccccc2)c2nc(C)oc12 [Compound 282, N-[{4-(Benzyloxy)-2-methylbenzo[d]oxazol-7-yl}methyl]acrylamide] has a GI50 (NCI-H226 cells) of less than 0.1 µM, a GI50 (NCI-H322 cells) of less than 1 µM and a GI50 (OVTOKO cells) of no more than 3 µM. For the same compound, the GI50 (HuH28 cells) was less than 3 µM.

With C=CC(=O)N[C@@H]1CC[C@H](Oc2ccc(C(F)(F)F)cn2)c2nc(Cl)ccc21 (relative stereo) [Compound 189, cis-N-(2-Chloro-8-[{5-(trifluoromethyl)pyridin-2-yl}oxy]-5,6,7,8-tetrahydroquinolin-5-yl)acrylamide] the GI50 (NCI-H226 cells) was less than 0.1 µM, the GI50 (NCI-H322 cells) was less than 1 µM and the GI50 (OVTOKO cells) was no more than 3 µM. The GI50 (HuH28 cells) was less than 3 µM.

C=CC(=O)NCc1ccc(Oc2ccc(Cl)cc2)c2nc(C)oc12 [Compound 281, N-[{4-(4-Chlorophenoxy]-2-methylbenzo[d]oxazol-7-yl}methyl)acrylamide] showed a GI50 (NCI-H226 cells) of less than 0.1 µM, a GI50 (NCI-H322 cells) of less than 1 µM and a GI50 (OVTOKO cells) of no more than 3 µM. The GI50 (HuH28 cells) was less than 3 µM.

With C=CC(=O)NCc1ccc(N(C)c2ccc(C(F)(F)F)cc2)c2nc(C)oc12 [Compound 269, N-{(2-Methyl-4-[methyl{4-(trifluoromethyl)phenyl}amino]benzo[d]oxazol-7-yl)methyl}acrylamide] the GI50 (NCI-H226 cells) was 0.1 to 1 µM, the GI50 (NCI-H322 cells) was less than 1 µM and the GI50 (OVTOKO cells) was no more than 3 µM. It also gave a GI50 (HuH28 cells) of less than 3 µM.

In the case of C=CC(=O)NCc1ccc(Oc2ccc(C(F)(F)F)cc2)c2ncoc12 [Compound 247, N-([4-{4-(Trifluoromethyl)phenoxy}benzo[d]oxazol-7-yl]methyl)acrylamide], the GI50 (NCI-H226 cells) is reported as less than 0.1 µM, the GI50 (NCI-H322 cells) is reported as less than 1 µM and the GI50 (OVTOKO cells) is reported as no more than 3 µM. For the same compound, the GI50 (HuH28 cells) was less than 3 µM.

Compound C=CC(=O)NC1CCOc2c1ccc(Oc1ccc(C(F)(F)F)nc1)c2OC (stereo not shown) [Compound 163, N-(8-Methoxy-7-[{6-(trifluoromethyl)pyridin-3-yl}oxy]chroman-4-yl)acrylamide] has a GI50 (NCI-H226 cells) of less than 0.1 µM, a GI50 (NCI-H322 cells) of less than 1 µM and a GI50 (OVTOKO cells) of no more than 3 µM. For the same compound, the GI50 (HuH28 cells) was less than 3 µM.

C=CC(=O)NCc1ccc(Sc2ccc(C(F)(F)F)cc2)c2nc(C)oc12 [Compound 272, N-{(2-Methyl-4-[{4-(trifluoromethyl)phenyl}thio]benzo[d]oxazol-7-yl)methyl}acrylamide] showed a GI50 (NCI-H226 cells) of less than 0.1 µM, a GI50 (NCI-H322 cells) of less than 1 µM and a GI50 (OVTOKO cells) of no more than 3 µM. The GI50 (HuH28 cells) was less than 3 µM.

C=CC(=O)NCc1ccc(Oc2ccc(N(C)C)cc2)c2nc(C)oc12 [Compound 275, N-([4-{4-(Dimethylamino)phenoxy}-2-methylbenzo[d]oxazol-7-yl]methyl)acrylamide] showed a GI50 (NCI-H226 cells) of 0.1 to 1 µM, a GI50 (NCI-H322 cells) of less than 1 µM and a GI50 (OVTOKO cells) of no more than 3 µM. It also gave a GI50 (HuH28 cells) of less than 3 µM.

For C=CC(=O)NCc1ccc(Oc2ccc(C(F)(F)F)cc2)c2nc(C(C)C)oc12 [Compound 245, N-([2-Isopropyl-4-{4-(trifluoromethyl)phenoxy}benzo[d]oxazol-7-yl]methyl)acrylamide], the GI50 (NCI-H226 cells) was less than 0.1 µM, the GI50 (NCI-H322 cells) was less than 1 µM and the GI50 (HuH28 cells) was less than 3 µM.

With C=CC(=O)NCc1ccc(Oc2ccc(C(F)(F)F)nc2)c2nc(C)sc12 [Compound 285, N-{(2-Methyl-4-[{6-(trifluoromethyl)pyridin-3-yl}oxy]benzo[d]thiazol-7-yl)methyl}acrylamide] the GI50 (NCI-H226 cells) was less than 0.1 µM, the GI50 (NCI-H322 cells) was less than 1 µM and the GI50 (OVTOKO cells) was no more than 3 µM. The GI50 (HuH28 cells) was less than 3 µM.

C=CC(=O)NCc1ccc(Oc2ccc(C(F)(F)F)cc2)c2sc(C)nc12 [Compound 257, N-([2-Methyl-7-{4-(trifluoromethyl)phenoxy}benzo[d]thiazol-4-yl]methyl)acrylamide] was tested, and the GI50 (NCI-H226 cells) was less than 0.1 µM, the GI50 (NCI-H322 cells) was less than 1 µM and the GI50 (HuH28 cells) was less than 3 µM.

In the case of C=CC(=O)N[C@@H]1CC[C@H](Oc2ccc(C(F)(F)F)cc2)c2nc(C3CC3)ccc21 (relative stereo) [Compound 185, cis-N-[2-Cyclopropyl-8-{4-(trifluoromethyl)phenoxy}-5,6,7,8-tetrahydroquinolin-5-yl]acrylamide], the GI50 (NCI-H226 cells) is reported as less than 0.1 µM, the GI50 (NCI-H322 cells) is reported as less than 1 µM and the GI50 (OVTOKO cells) is reported as no more than 3 µM. The GI50 (HuH28 cells) was less than 3 µM.

C=CC(=O)NCc1ccc(Oc2ccc(C(F)(F)F)cc2)c2nc(C)sc12 [Compound 256, N-([2-Methyl-4-{4-(trifluoromethyl)phenoxy}benzo[d]thiazol-7-yl]methyl)acrylamide] gave a GI50 (NCI-H226 cells) of less than 0.1 µM, a GI50 (NCI-H322 cells) of less than 1 µM and a GI50 (OVTOKO cells) of no more than 3 µM. The GI50 (HuH28 cells) was less than 3 µM.

In the case of C=CC(=O)NCc1ccc(Oc2ccc(C(F)(F)F)nc2)c2nc(CC)oc12 [Compound 251, N-{(2-Ethyl-4-[{6-(trifluoromethyl)pyridin-3-yl}oxy]benzo[d]oxazol-7-yl)methyl}acrylamide], the GI50 (NCI-H226 cells) is reported as less than 0.1 µM, the GI50 (NCI-H322 cells) is reported as less than 1 µM and the GI50 (HuH28 cells) is reported as less than 3 µM.

C=CC(=O)N[C@@H]1CC[C@H](Oc2ccc(C(F)(F)F)cc2)c2nc(OC)ccc21 (relative stereo) [Compound 179, cis-N-[2-Methoxy-8-{4-(trifluoromethyl)phenoxy}-5,6,7,8-tetrahydroquinolin-5-yl]acrylamide] was tested, and the GI50 (NCI-H226 cells) was less than 0.1 µM, the GI50 (NCI-H322 cells) was less than 1 µM and the GI50 (OVTOKO cells) was no more than 3 µM. The GI50 (HuH28 cells) was less than 3 µM.

Compound C=CC(=O)NCc1ccc(Oc2ccc(C(F)(F)F)cc2)c2nc(C)oc12 [Compound 243, N-([2-Methyl-4-{4-(trifluoromethyl)phenoxy}benzo[d]oxazol-7-yl]methyl) acrylamide] has a GI50 (NCI-H226 cells) of less than 0.1 µM, a GI50 (NCI-H322 cells) of less than 1 µM and a GI50 (OVTOKO cells) of no more than 3 µM. It also gave a GI50 (HuH28 cells) of less than 3 µM.

For C=CC(=O)NCc1ccc(Oc2ccc(C(F)(F)F)cc2)c2nc(CC)oc12 [Compound 244, N-([2-Ethyl-4-{4-(trifluoromethyl)phenoxy}benzo[d]oxazol-7-yl]methyl)acrylamide], the GI50 (NCI-H226 cells) was less than 0.1 µM, the GI50 (NCI-H322 cells) was less than 1 µM and the GI50 (OVTOKO cells) was no more than 3 µM. The GI50 (HuH28 cells) was less than 3 µM.

For C=CC(=O)NC1CC[C@H](Oc2cccc(Cl)c2)c2ncccc21 (stereo in doubt) [Compound 68, cis-N-{8-(3-Chlorophenoxy)-5,6,7,8-tetrahydroquinolin-5-yl}acrylamide], the GI50 (NCI-H226 cells) was less than 0.1 µM, the GI50 (NCI-H322 cells) was less than 1 µM and the GI50 (OVTOKO cells) was no more than 3 µM. The GI50 (HuH28 cells) was less than 3 µM.

C=CC(=O)NCc1ccc(Oc2ccc(C#N)cc2)c2nc(C)oc12 [Compound 278, N-[{4-(4-Cyanophenoxy]-2-methylbenzo[d]oxazol-7-yl}methyl)acrylamide] showed a GI50 (NCI-H226 cells) of 0.1 to 1 µM, a GI50 (NCI-H322 cells) of less than 1 µM and a GI50 (OVTOKO cells) of no more than 3 µM. For the same compound, the GI50 (HuH28 cells) was less than 3 µM.

For C=CC(=O)NCc1ccc(Oc2ccc(C(F)(F)F)cc2)c2nc(-c3ccccc3)oc12 [Compound 246, N-([2-Phenyl-4-{4-(trifluoromethyl)phenoxy}benzo[d]oxazol-7-yl]methyl) acrylamide], the GI50 (NCI-H226 cells) was 0.1 to 1 µM, the GI50 (NCI-H322 cells) was less than 1 µM and the GI50 (HuH28 cells) was less than 3 µM.

In the case of C=CC(=O)NCc1ccc(C(O)c2ccc(C(F)(F)F)cc2)c2nc(C)oc12 (stereo not shown) [Compound 268, N-{(4-[Hydroxy{4-(trifluoromethyl)phenyl}methyl]-2-methylbenzo[d]oxazol-7-yl)methyl}acrylamide], the GI50 (NCI-H226 cells) is reported as 0.1 to 1 µM, the GI50 (NCI-H322 cells) is reported as less than 1 µM and the GI50 (OVTOKO cells) is reported as no more than 3 µM. It also gave a GI50 (HuH28 cells) of less than 3 µM.

Work on C=CC(=O)NCc1ccc(Oc2ccc(C(F)(F)F)nc2)c2oc(C)nc12 [Compound 283, N-{(2-Methyl-7-[{6-(trifluoromethyl)pyridin-3-yl}oxy]benzo[d]oxazol-4-yl)methyl}acrylamide] yielded a GI50 (NCI-H226 cells) of less than 0.1 µM, a GI50 (NCI-H322 cells) of less than 1 µM and a GI50 (OVTOKO cells) of no more than 3 µM. For the same compound, the GI50 (HuH28 cells) was less than 3 µM.

C=CC(=O)NCc1ccc(Oc2ccc(C(F)(F)F)cn2)c2nc(C)sc12 [Compound 286, N-{(2-Methyl-4-[{5-(trifluoromethyl)pyridin-2-yl}oxy]benzo[d]thiazol-7-yl)methyl}acrylamide] was tested, and the GI50 (NCI-H226 cells) was less than 0.1 µM, the GI50 (NCI-H322 cells) was less than 1 µM and the GI50 (OVTOKO cells) was no more than 3 µM. It also gave a GI50 (HuH28 cells) of less than 3 µM.

For C=CC(=O)NCc1ccc(Oc2ccc(OC)cc2)c2nc(C)oc12 [Compound 280, N-[{4-(4-Methoxyphenoxy]-2-methylbenzo[d]oxazol-7-yl}methyl)acrylamide], the GI50 (NCI-H226 cells) was less than 0.1 µM, the GI50 (NCI-H322 cells) was less than 1 µM and the GI50 (OVTOKO cells) was no more than 3 µM. For the same compound, the GI50 (HuH28 cells) was less than 3 µM.
